According to ChEMBL document CHEMBL5543155, “Design, Synthesis, and Biological Evaluation of β-Trifluoroethoxydimethyl Selenides as Potent Antiosteoporosis Agents” (J Med Chem, 2024):
Activity calls are given as the source filed them.

Experiments:
MC3T3-E1 [1] = test: Induction of osteoblast differentiation in mouse MC3T3-E1 cells assessed as bone formation by measuring increase in calcium deposition measured after 21 days by Alizarin red S staining based inverted microscopic analysis; type: functional, cell-based; conditions: dose 2.5-10 µM, time 21.0 day
BMMC [2] = test: Anti-osteoclastogenesis activity in M-CSF/RANKL-induced C57BL/6 mouse BMMC cells assessed as inhibition of osteoclasts formation incubated for 6 days with media replacement for every 2 days by TRAP-staining based light microscopic analysis; type: functional, cell-based
BMMC [3] = test: Anti-osteoclastogenesis activity in M-CSF/RANKL-induced C57BL/6 mouse BMMC cells assessed as downregulation of C-Fos gene expression incubated for 5 days by qRT-PCR analysis; type: functional, cell-based; conditions: dose 0-10 µM, time 5.0 day
[4] = Toxicity in OVX osteoporotic C57BL/6 mouse assessed as effect on size and surface gloss of heart at 10 mg/kg, ip administered every other day for 8 weeks by H and E staining based analysis; type: organism-based; conditions: in vivo, 1344 h
[5] = Toxicity in OVX osteoporotic C57BL/6 mouse assessed as effect on size and surface gloss of spleen at 10 mg/kg, ip administered every other day for 8 weeks by H and E staining based analysis; type: organism-based; conditions: in vivo, 1344 h
[6] = biological target: Transcription factor p65 (Mus musculus) (UniProt Q04207); test: Inhibition of p65 phosphorylation in RANKL-induced C57BL/6 mouse BMMC cells at 5 uM pretreated for 6 hrs followed by RANKL stimulation and measured upto 60 mins by Western blot analysis; type: cell-based; conditions: time <= 7.0 hrs
Sequence of Transcription factor p65 (Mus musculus) (Q04207 whole entry): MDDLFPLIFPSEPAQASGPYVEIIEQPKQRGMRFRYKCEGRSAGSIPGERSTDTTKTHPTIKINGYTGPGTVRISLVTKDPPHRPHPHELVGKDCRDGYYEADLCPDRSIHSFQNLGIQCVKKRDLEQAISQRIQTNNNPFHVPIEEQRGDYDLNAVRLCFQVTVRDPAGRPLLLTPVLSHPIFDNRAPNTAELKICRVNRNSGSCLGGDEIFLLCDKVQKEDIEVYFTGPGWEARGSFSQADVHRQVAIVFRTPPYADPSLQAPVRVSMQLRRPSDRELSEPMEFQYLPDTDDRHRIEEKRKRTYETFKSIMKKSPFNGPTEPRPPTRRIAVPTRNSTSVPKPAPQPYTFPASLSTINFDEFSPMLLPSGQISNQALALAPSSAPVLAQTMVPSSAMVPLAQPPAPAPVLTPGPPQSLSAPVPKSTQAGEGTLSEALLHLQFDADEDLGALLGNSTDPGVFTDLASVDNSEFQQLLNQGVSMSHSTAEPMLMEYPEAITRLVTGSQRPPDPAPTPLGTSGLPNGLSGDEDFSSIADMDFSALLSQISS

BMMC [7] = test: Effect on total JNK protein expression in RANKL-induced C57BL/6 mouse BMMC cells at 5 uM pretreated for 6 hrs followed by RANKL stimulation and measured upto 60 mins by Western blot analysis; type: functional, cell-based; conditions: time <= 7.0 hrs
[8] = Toxicity in OVX osteoporotic C57BL/6 mouse assessed as abnormal behaviors at 10 mg/kg, ip administered every other day for 8 weeks; type: organism-based; conditions: in vivo, 1344 h
BMMC [9] = test: Anti-osteoclastogenesis activity in M-CSF/RANKL-induced C57BL/6 mouse BMMC cells cultured in hydroxyapatite-coated plates assessed as reduction in bone resorbed area per osteoclast incubated for 4 days by microscopic analysis; type: functional, cell-based; conditions: dose 2.5-10 µM, time 4.0 day
MC3T3-E1 [10] = test: Induction of osteoblast differentiation in mouse MC3T3-E1 cells assessed as bone formation by measuring increase in BMP2 protein expression measured after 7 days by Western blot analysis; type: functional, cell-based; conditions: dose 2.5-10 µM, time 7.0 day
BMMC [11] = test: Effect on total ERK protein expression in RANKL-induced C57BL/6 mouse BMMC cells at 5 uM pretreated for 6 hrs followed by RANKL stimulation and measured upto 60 mins by Western blot analysis; type: functional, cell-based; conditions: time <= 7.0 hrs
BMMC [12] = test: Inhibition of ERK phosphorylation in RANKL-induced C57BL/6 mouse BMMC cells at 5 uM pretreated for 6 hrs followed by RANKL stimulation and measured upto 60 mins by Western blot analysis; type: cell-based; conditions: time <= 7.0 hrs
[13] = Toxicity in OVX osteoporotic C57BL/6 mouse assessed as effect on size and surface gloss of kidney at 10 mg/kg, ip administered every other day for 8 weeks by H and E staining based analysis; type: organism-based; conditions: in vivo, 1344 h
BMMC [14] = test: Effect on total p38 protein expression in RANKL-induced C57BL/6 mouse BMMC cells at 5 uM pretreated for 6 hrs followed by RANKL stimulation and measured upto 60 mins by Western blot analysis; type: functional, cell-based; conditions: time <= 7.0 hrs
BMMC [15] = test: Anti-osteoclastogenesis activity in M-CSF/RANKL-induced C57BL/6 mouse BMMC cells assessed as downregulation of MMP-9 gene expression incubated for 5 days by qRT-PCR analysis; type: functional, cell-based; conditions: dose 0-10 µM, time 5.0 day
BMMC [16] = test: Anti-osteoclastogenesis activity in M-CSF/RANKL-induced C57BL/6 mouse BMMC cells assessed as prevention of osteoclasts precursor differentiation at 5 uM measured on day 1 to 3 by TRAP-staining based light microscopic analysis; type: functional, cell-based; conditions: time 1-3 day
BMMC [17] = test: Anti-osteoclastogenesis activity in M-CSF/RANKL-induced C57BL/6 mouse BMMC cells assessed as reduction in F-actin ring formation incubated for 7 days with media replacement for every other day by TRITC phalloidin/DAPI-staining based fluorescence microscopic analysis; type: functional, cell-based; conditions: dose 0-10 µM, time 7.0 day
BMMC [18] = test: Anti-osteoclastogenesis activity in M-CSF/RANKL-induced C57BL/6 mouse BMMC cells assessed as downregulation of DC-STAMP gene expression incubated for 5 days by qRT-PCR analysis; type: functional, cell-based; conditions: dose 0-10 µM, time 5.0 day
Mus musculus [19] = test: Anti-osteoporosis activity in ovariectomized C57BL/6 mouse assessed as reduction in bone loss by measuring increase in trabecular thickness at 10 mg/kg, ip administered every other day for 8 weeks by micro-CT analysis; type: functional, organism-based
BMMC [20] = test: Anti-osteoclastogenesis activity in M-CSF/RANKL-induced C57BL/6 mouse BMMC cells assessed as downregulation of NFATc1 gene expression incubated for 5 days by qRT-PCR analysis; type: functional, cell-based; conditions: dose 0-10 µM, time 5.0 day
Mus musculus [21] = test: Anti-osteoporosis activity in ovariectomized C57BL/6 mouse assessed as reduction in bone loss at 10 mg/kg, ip administered every other day for 8 weeks by H and E staining based analysis; type: functional, organism-based
BMMC [22] = test: Anti-osteoclastogenesis activity in M-CSF/RANKL-induced C57BL/6 mouse BMMC cells assessed as downregulation of cathepsin K gene expression incubated for 5 days by qRT-PCR analysis; type: functional, cell-based; conditions: dose 0-10 µM, time 5.0 day

CC(C)(OCC(F)(F)F)C([Se]c1ccccc1)C(=O)Nc1ccncc1 (stereo not drawn)
active: Activity (MC3T3-E1 [1]) Dose-Dependent Effect | Activity (BMMC [2]; dose 0-10 µM, time 6.0 day) Dose-Dependent Effect | Activity (BMMC [3]) Dose-Dependent Effect | inhibition [6] | Activity (BMMC [9]) Dose-Dependent Effect | Activity (MC3T3-E1 [10]) Dose-Dependent Effect | inhibition (BMMC [12]) | Activity (BMMC [15]) Dose-Dependent Effect | Activity (BMMC [16]) | Activity (BMMC [17]) Dose-Dependent Effect | Activity (BMMC [18]) Dose-Dependent Effect | Activity (Mus musculus [19]) | Activity (BMMC [20]) Dose-Dependent Effect | Activity (Mus musculus [21]) | Activity (BMMC [22]) Dose-Dependent Effect
inactive: Activity (BMMC [7]) | Activity (BMMC [11]) | Activity (BMMC [14])
Non-Toxic: Activity [4] | Activity [5] | Activity [8] | Activity [13]
2.41 µM: IC50 (BMMC [2]; C57BL/6, BMMC)
